Assay results taken from publication PMC11259170, “Small-molecule probe for IBD risk variant GPR65 I231L alters cytokine signaling networks through positive allosteric modulation” (Science Advances, 2024).

Tests used:
hGPR65 = target: T1, hGPR65 (Homo sapiens, UniProt Q8IYL9); assay: cAMP detection (Lance Ultra), GPR65 KO HeLa reconstituted with hGPR65; 21K screen dose confirmation; type: cell-based; conditions: HeLa GPR65 KO + hGPR65, pH 7.1, 30 min, normalized to DMSO and 100 μM forskolin; read-out: WT EC50
T1 construct: expressed in transfected cells; host or cells: HeLa (ATCC CCL-2), lentiviral transduction, pLX317
T1 sequence (Q8IYL9 whole entry): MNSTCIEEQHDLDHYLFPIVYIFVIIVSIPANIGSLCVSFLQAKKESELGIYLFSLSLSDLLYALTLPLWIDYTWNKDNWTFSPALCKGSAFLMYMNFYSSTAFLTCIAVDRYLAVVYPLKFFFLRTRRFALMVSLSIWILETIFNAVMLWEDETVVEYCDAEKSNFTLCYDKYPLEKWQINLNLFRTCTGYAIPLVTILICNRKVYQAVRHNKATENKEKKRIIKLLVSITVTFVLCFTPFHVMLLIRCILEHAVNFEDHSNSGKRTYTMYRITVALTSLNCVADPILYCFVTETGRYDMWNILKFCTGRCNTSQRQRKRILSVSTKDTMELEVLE
Method: (§1) The Lance Ultra cAMP Kit (PerkinElmer, TRF0264) was used for cAMP detection, and included the following reagents: ULight anti-cAMP antibody, Eu-cAMP tracer, 7.5% BSA Stabilizer solution, and cAMP detection buffer. Stimulation buffer was prepared as described by the kit manufacturer as follows: Hanks buffered saline solution (HBSS, Life Technologies, 14025-126) containing 0.5 mM IBMX (3-isobutyl-1-methylxanthine, Sigma-Aldrich, I7018) and buffered with 1 M Hepes (15630-080). Stimulation buffer was then adjusted to pH 7.1 using 12 N HCl. HeLa cells were lifted using Versene and then suspended at 2.5 × 10^5 cells/ml in stimulation buffer. Cells were then plated at 20 μl per well (5000 cells per well) in white, opaque OptiPlate 384-well MicroPlates (PerkinElmer, 6007299) using a Thermo Fisher Scientific Combi liquid dispenser. Compounds, stored at 5 mM in DMSO for the primary screen, or in a range of concentrations from 39 μM to 20 mM for dose curves, were transferred by the CyBio CyBi-Well Vario pin transfer tool with 100-nl pins (V&P FP1NS50H, 50-nl slot, 0.457-mm diameter, hydrophobic coated), into each assay well, 100 nl per well for a final assay concentration of 25 μM for the primary screen, or 195 nM to 100 μM for dose curves. Assay plates were then incubated at RT for 30 min. Eu-cAMP tracer was diluted 1:33 into detection buffer and the final solution then distributed into assay wells, 5 μl per well. ULight anti-cAMP antibody was diluted 1:100 into detection buffer, then distributed into assay wells, also 5 μl per well. Assay plates were then incubated at RT in the dark for 1 hour. Eu-cAMP tracer and Förster resonance energy transfer (FRET) emissions were then read using a PerkinElmer EnVision Multimode plate reader (ENVISION21040010), exciting each well at 320 nm [UV2 (TRF) 320 filter] and reading emissions at 615 nm (Europium 615 filter) and 665 nm (APC665 filter). Data analysis was performed using Genedata Screener and GraphPad Prism.
(§2) HeLa KO cell lines were generated using the px330 plasmid CRISPR system as previously described ([18]). Briefly, HeLa cells were transfected with a Cas9 vector containing a gene-specific single-guide RNA to target the GPR65 coding exon. Forty-eight to 72 hours after transfection, single clones were obtained through limiting dilution and then sequenced to validate the KO. Reconstituted cell lines were produced by transducing KO cells with empty lentivirus or lentivirus containing hGPR65 or mGPR65. After 48 hours, cells were treated with puromycin (3 μg/ml; InvivoGen, ant-pr-1) and resistant cells were used in experiments.

[1] = test system: GPR65 KO HeLa cells + pLX empty vector; assay: cAMP detection, GPR65 KO HeLa + empty pLX vector (null control); type: cell-based, human; conditions: HeLa GPR65 KO + pLX, pH 7.1, 30 min, normalized to DMSO and 100 μM forskolin
Method: as §1, §2

| Compound | EC50 (hGPR65) [µM] | EC50 [1] [µM] |
| --- | --- | --- |
| c1ccc(-c2cc3ncnc(N4CCSCC4)c3s2)cc1 [BRD-K51028315-001-02-0] | > 100 | > 100 |
| CN(Cc1ccc2ncccc2c1)C(=O)[C@@H]1C[C@H](N)CN1C [BRD-K56675411-001-02-6] | 70.2 | 57.3 |
| Cc1nccn1-c1ccc(CN(Cc2cccnc2)C2CC(C)(C)NC(C)(C)C2)cc1 [BRD-K56921026-001-02-1] | 57 | 50.8 |
| CN(C)CCOC(=O)C1CC2=C(CCCC2(C)C)CC1C(=O)O (stereo not drawn) [BRD-A91973386-001-02-5] | 59.6 | 70.7 |
| COC(=O)c1cc2c(s1)-c1cc(F)ccc1OC2 [BRD-K56384677-001-09-9] | 90 | 94.3 |
| Cn1c(=O)n(C)c2cc(NC(=O)CSc3ncc(C#N)c(N)n3)ccc21 [BRD-K40764399-001-02-3] | > 100 | > 100 |
| CCc1cc(CC)c2sc3ccccc3c(=O)c2c1 [BRD-K51520769-001-02-7] | > 100 | > 100 |
| Cc1cnccc1CN1CC(C(=O)O)CC1=O (stereo not drawn) [BRD-A19095755-001-02-9] | 20.1 | 16.9 |
| CC(C)CCn1c(Sc2nc3ccccc3s2)nc2c1c(=O)[nH]c(=O)n2C [BRD-K74743357-001-08-3] |  | 77.4 |
| Cc1cnc(N)c(C(=O)C2CCN(C(=O)c3cnc(C)nc3C)CC2)c1 [BRD-K07158347-001-02-2] | 18.3 | 17 |
| Cc1nc(C2CCCNC2)cc(N(C)Cc2cccc3cnccc23)n1 (stereo not drawn) [BRD-A78843635-001-02-6] | > 100 | 95.8 |
| O=c1[nH]c2ccccc2c2oc(-c3ccccc3)nc12 [BRD-K66733191-001-02-7] | 91.2 | 71 |
| Clc1ccc2c(N3CCCC4(CCNC4)C3)ccnc2c1 (stereo not drawn) [BRD-A50085437-001-02-6] | 26.2 | 33.5 |
| CCCOc1cc2c(cc1CN(C)Cc1cc(=O)[nH]c3ccccc13)OCO2 [BRD-K37392365-001-02-8] | > 100 | > 100 |
